Experimental data reported in PubChem BioAssay (NCI).
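1) Cells in 96-well plates. 2) Compound, 48 h, 5 concentrations. 3) Linear interpolation between surrounding doses. 4) Unreached endpoint = highest concentration. The concentration for 50% growth inhibition is given as GI50. TGI denotes the concentration required for complete inhibition of growth.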

How the values were obtained:
Experiment in all cases: growth of human tumour cells (NCI), 48 h
ACHN renal = tested on: ACHN renal
MALME-3M melanoma = tested on: MALME-3M melanoma
SNB-78 CNS = tested on: SNB-78 CNS
RPMI-8226 leukemia = tested on: RPMI-8226 leukemia
CCRF-CEM leukemia = tested on: CCRF-CEM leukemia
NCI-H460 lung = tested on: NCI-H460 lung
HL-60(TB) leukemia = tested on: HL-60(TB) leukemia
BT-549 breast = tested on: BT-549 breast
HS 578T breast = tested on: HS 578T breast
MDA-N = tested on: MDA-N

| SMILES | TGI (ACHN renal) [µM] | TGI (MALME-3M melanoma) [µM] | TGI (SNB-78 CNS) [µM] | TGI (RPMI-8226 leukemia) [µM] | TGI (CCRF-CEM leukemia) [µM] | TGI (NCI-H460 lung) [µM] | TGI (HL-60(TB) leukemia) [µM] | TGI (BT-549 breast) [µM] | TGI (HS 578T breast) [µM] | TGI (MDA-N) [µM] | GI50 (ACHN renal) [µM] | GI50 (MALME-3M melanoma) [µM] | GI50 (SNB-78 CNS) [µM] | GI50 (RPMI-8226 leukemia) [µM] | GI50 (CCRF-CEM leukemia) [µM] | GI50 (NCI-H460 lung) [µM] | GI50 (HL-60(TB) leukemia) [µM] | GI50 (BT-549 breast) [µM] | GI50 (HS 578T breast) [µM] | GI50 (MDA-N) [µM] |
| --- | --- | --- | --- | --- | --- | --- | --- | --- | --- | --- | --- | --- | --- | --- | --- | --- | --- | --- | --- | --- |
| CC1(c2ccc(Cl)cc2)C2C(=O)NC(=O)C1C(=O)NC2=O (stereo not given) | > 100 | > 100 | > 100 | > 100 | > 100 | > 100 | > 100 | – | – | – | – | – | – | – | – | – | – | – | – | – |
| CCc1nc(N)nc(N)c1-c1ccc(N2CCNCC2)cc1 | > 100 | – | – | > 90.5 | > 86.7 | > 100 | > 71 | > 100 | > 100 | > 100 | – | – | – | – | – | – | – | – | – | – |
| Brc1ccc2ns[s+]c2c1 | > 100 | > 86 | > 31.6 | > 100 | > 100 | > 100 | > 100 | – | – | – | – | – | – | – | – | – | – | – | – | – |
| Cc1cc(N2CCN(C)CC2)n2nc(-c3ccc(Cl)cc3)nc2n1 | > 100 | > 100 | – | > 100 | > 100 | > 100 | > 100 | > 100 | > 100 | > 100 | – | – | – | – | – | – | – | – | – | – |
| CCCCCCC[CH2][Sn]1([CH2]CCCCCCC)[O]C(=O)c2cccnc2[O]1 | > 100 | > 100 | > 100 | > 100 | > 100 | > 100 | > 100 | – | – | – | > 100 | > 100 | > 100 | > 100 | > 100 | > 100 | > 100 | – | – | – |
| O=S(=O)(c1cnccc1N1CCN(CCO)CC1)N1CCCC1 | > 100 | > 100 | – | > 100 | – | > 100 | > 100 | > 100 | > 100 | > 100 | – | – | – | – | – | – | – | – | – | – |
| NC(=O)NC1C(C(N)=O)N(Cc2ccccc2)C(=O)N1Cc1ccccc1 (stereo not given) | > 100 | > 100 | > 100 | > 100 | > 100 | > 100 | > 100 | – | – | – | – | – | – | – | – | – | – | – | – | – |
| CCOC(=O)C1(C)CCCCC(=O)N1 (stereo not given) | > 100 | > 100 | > 100 | – | – | > 100 | > 100 | – | – | – | – | – | – | – | – | – | – | – | – | – |
| CC(=O)[O][Hg][c]1c(C)c(C)cc(C)c1C | 8.18 | 2.75 | – | 6.11 | 13.5 | 3.09 | 2.61 | 3.79 | 4.02 | 2.08 | 3.71 | 1.33 | – | 1.6 | 0.39 | 0.739 | 0.704 | 1.86 | 0.708 | 0.83 |
| CCOC(=O)COc1ccc2c(C)cc(=O)oc2c1 | > 100 | > 100 | – | > 100 | > 100 | > 100 | > 100 | > 100 | > 100 | > 100 | – | – | – | – | – | – | – | – | – | – |
| CN(C)C(=S)SCC(=O)Nc1ccccc1 | > 100 | > 100 | – | > 100 | > 100 | > 100 | > 100 | > 100 | > 100 | > 100 | – | – | – | – | – | – | – | – | – | – |
| ClC(Cl)[Si]12OCCN(CCO1)CCO2 | > 100 | > 100 | > 100 | > 100 | > 100 | > 100 | > 100 | – | – | – | – | – | – | – | – | – | – | – | – | – |
| Cn1nc(-c2ccccc2)c2c(/C=C/c3ccccc3)onc2c1=O | > 100 | > 100 | > 100 | > 100 | > 100 | > 100 | > 100 | – | – | – | – | – | – | – | – | – | – | – | – | – |
| Nc1ncnc2c1ncn2C1OC(CO)C(O)C1N (stereo not given) | > 100 | > 100 | – | > 100 | – | > 100 | > 100 | > 100 | > 100 | > 100 | – | – | – | – | – | – | – | – | – | – |
| CN(c1ccccc1)c1c(Cl)c(=O)oc2c1ccc1occc12 | > 100 | > 100 | > 100 | > 100 | > 100 | > 100 | > 100 | – | – | – | – | – | – | – | – | – | – | – | – | – |
| Cc1ccc(S(=O)(=O)NC(CN)C(=O)O)cc1 (stereo not given) | > 100 | > 100 | – | > 100 | – | > 100 | – | > 100 | > 100 | > 100 | – | – | – | – | – | – | – | – | – | – |
| COC(=O)CSSCc1ccc([N+](=O)[O-])cc1 | 36.2 | 67.7 | – | 54.8 | 88 | > 100 | 76.2 | 41.7 | 59.4 | 34.7 | – | – | – | – | – | – | – | – | – | – |
| CC(SC(=O)Nc1ccc(N=Nc2ccccc2)cc1)C(=O)O (stereo not given) | > 100 | – | > 100 | > 100 | > 100 | > 100 | > 100 | – | – | – | – | – | – | – | – | – | – | – | – | – |
| CC[C@H](C)[C@H](NC(=O)CN(C)C)C(=O)N(C)[C@H](C[C@@H](OC(C)=O)c1nc(C(=O)NC23CC(C(=O)OC)(C2)C3)cs1)C(C)C | > 25 | > 25 | – | > 25 | > 25 | > 25 | 0.181 | > 13.9 | > 25 | – | 2.28 | > 6.28 | – | 0.0845 | 0.0932 | 0.408 | 0.0455 | 0.151 | 0.125 | – |
| O=C(Nc1nc2ccccc2s1)Nc1ccc([N+](=O)[O-])cc1Cl | 18 | 11.1 | – | > 21 | > 49.4 | 6.81 | > 54.7 | 7.68 | > 20.8 | – | 6.53 | 2.82 | – | 2.19 | 2.52 | 2.42 | 15.2 | 2.04 | 3.98 | – |
| CCOc1ccc(NC(=O)CC2C(=O)Nc3ccccc3S2(=O)=O)cc1 (stereo not given) | > 100 | > 100 | > 100 | > 100 | – | > 100 | > 100 | – | – | – | – | – | – | – | – | – | – | – | – | – |
| c1ccc2c(c1)cc1n2CC2CN=NC12 (stereo not given) | > 100 | > 100 | > 100 | > 100 | – | > 100 | > 100 | – | – | – | – | – | – | – | – | – | – | – | – | – |
| C=C1C(=O)OC2/C=C(/C)C(OC(C)=O)C/C=C(\C)C(OC(=O)C3(C)OC3C)C(O)C12 (stereo not given) | > 100 | – | – | > 100 | > 100 | > 100 | > 100 | > 100 | > 100 | > 100 | – | – | – | – | – | – | – | – | – | – |
| O=C1Cc2cc(C(=O)NC3C[C@H]4CC[C@@H](C3)N4S(=O)(=O)CC3CCN(CCCC(F)(F)F)CC3)c(Cl)cc2N1 (stereo not given in full) | > 100 | > 100 | – | > 100 | > 100 | > 100 | > 100 | > 100 | > 100 | – | > 100 | > 100 | – | > 100 | > 100 | > 100 | > 100 | > 100 | > 100 | – |
